Literature values as cited in patent US7662371B2, “Composition for lowering the concentration of intestinal pathogenic peptides” (Neurozym Biotech AS, priority 2001, dated 2010).

Conditions: oral treatment, regressive-onset autism

CN[C@H](CC(C)C)C(=O)N[C@H]1C(=O)N[C@@H](CC(N)=O)C(=O)N[C@H]2C(=O)N[C@H]3C(=O)N[C@H](C(=O)N[C@H](C(=O)O)c4cc(O)cc(O)c4-c4cc3ccc4O)[C@H](O)c3ccc(c(Cl)c3)Oc3cc2cc(c3O[C@@H]2O[C@H](CO)[C@@H](O)[C@H](O)[C@H]2O[C@H]2C[C@](C)(N)[C@H](O)[C@H](C)O2)Oc2ccc(cc2Cl)[C@H]1O [vancomycin]
improvement, number of children: 8 of 10
